Columns and labels:
Assay in all cases: GeneChip gene expression in renal glomerulus
Assay type in all cases: in vivo, mouse
[1] = test system: macrophage scavenger receptor 1; conditions: probe 1448061_at, 0.02% in diet, 12 weeks
Method: (§1) Type II diabetic female db/db mice and non-diabetic db/m were purchased from Clea Japan, Inc. Mice were bred under the conditions with a 12 hours light-dark cycle at a temperature of 21° C. to 25° C. For acclimation, mice were fed CE-2 (Clea Japan, Inc.) with free access to water for one week. The mice were divided into three groups each consisting of 8 mice (non-diabetic db/m, diabetic db/db, and astaxanthin-administered db/db) and each group was bred with feed ad libitum. Mice in astaxanthin-administered group were fed a diet in which 0.02% astaxanthin in terms of free astaxanthin was compounded with CE-2. Each group was bred for 12 weeks, and body weight, blood glucose levels, 8-OHdG levels in urine, albumin levels in urine, and kidney histopathology, were measured. Astaxanthin used here was AstaReal (registered trademark, Fuji Chemical Industry Co., Ltd.) 50F, which is oil composed of astaxanthin fatty acid ester and triglycerides and contains 5% astaxanthin in terms of free astaxanthin.
(§2) After the period of test breeding, kidney was removed and frozen at −80° C. Using an LM200 system (Olympus Corporation), the renal glomerulus was cut from kidney of mice while keeping low temperature. tRNA of renal glomerulus was extracted using tRNA extraction regent “Isogen” (produced by Nippon Gene Co., Ltd.), and then preparation of cRNA and hybridization were performed according to the Affymetrix GeneChip Eukaryotic Small Sample Target Labeling Assay Ver. II.
(§3) (1) Synthesis of first strand cDNA: 1 μL of total RNA solution and 1 of 5 μM T7-Oligo(dT) primer were mixed, heated at 70° C. for 6 minutes, and then cooled at 4° C. for 2 minutes. 3 μL of RT_Premix_1 (1.5 μL DEPC-treated water, 4 μL 5× First strand Buffer, 2 μL DTT (0.1 M), 1.5 μL dNTP Mix (10 mM), 1 μL RNase inhibitor (40 U/μL), and 2 μL Super-Script II (200 U/μL)) was added and reverse transcribed at 42° C. for 1 hour. The sample was heated at 70° C. for 10 minutes to inactivate Super Script II, and then cooled to 4° C. (2) Synthesis of second strand cDNA: 32.5 μl of SS_Premix_1 (91 μL DEPC-treated water, 30 μL 5× Second Strand Buffer, 3 μL dNTP (10 mM), 1 μL E. coli DNA ligase (10 U/μL); 4 μL E. coli DNA polymerase (10 U/μL), and 1 μL RNase H (2 U/μL)) was added to the first strand cDNA solution and allowed to react for 2 hours at 16° C. (3) To the resulting cDNA, was added 1 μL T4 DNA polymerase (5 U/μl) and allowed to react for 10 minutes at 16° C., and purified by ethanol precipitation. (4) In vitro transcription: To the dried double-stranded cDNA pellet, was added 10 μL of reagents (4 μL DEPC-treated water, 4 μL premixed NTPs, 1 μL 10× reaction buffer, and 1 μL 10× enzyme mix), and allowed to react at 37° C. in a water bath for 6 hours. (5) First cycle cRNA was purified using the RNeasy Mini Kit in accordance with the protocol in the handbook (QIAGEN). (6) Subsequently, for the amplification and labeling, the cRNA sample was mixed with random primers (0.2 μg/μL), treated at 70° C. for 10 minutes, cooled on ice for 2 minutes, 5 μL of RT_Premix_2 (5× First Strand Buffer, DTT (0.1 M), dNTP mix (10 mM), RNase inhibitor (40 U/μL), and SuperScript II (200 U/μL) was added, and allowed to react at 42° C. for 1 hour. (7) Next, Second Sstrand cDNA synthesis was carried out by adding 5 μM T7-Oligo(dT) promoter treating at 70° C. for 6 minutes, cooling at 4° C., and adding 62 μL of SS_Premix_2 (43 μL it DEPC-treated water, 15 μL 5× Second Strand Buffer, 1.5 μL dNTP mix (10 mM), and 2 μL E. coli DNA polymerase (10 U/μL)). (8) To the resulting cDNA, was treated added 1 μL of T4 DNA polymerase (5 U/μL), allowed to react at 16° C. for 10 minutes, and purified by ethanol precipitation. […]

[2] = test system: superoxide dismutase 1, soluble; conditions: 0.02% in diet, 12 weeks
Method: as §1, §2, §3

[3] = test system: C1q related factor; conditions: probe 1422777_at, 0.02% in diet, 12 weeks
Method: as §1, §2, §3

[4] = test system: erythropoietin receptor; conditions: probe 1423344_at, 0.02% in diet, 12 weeks
Method: as §1, §2, §3

[5] = test system: MAD homolog 4 (Dorosophia); conditions: probe 1422486_a_at, 0.02% in diet, 12 weeks
Method: as §1, §2, §3

[6] = test system: secreted posphoprotein 1; conditions: probe 1449254_at, 0.02% in diet, 12 weeks
Method: as §1, §2, §3

[7] = test system: C1q and tumor necrosis factor related protein 5; conditions: probe 1424762_at, 0.02% in diet, 12 weeks
Method: as §1, §2, §3

[8] = test system: caspase 7; conditions: probe 1434099_at, 0.02% in diet, 12 weeks
Method: as §1, §2, §3

[9] = test system: procollagen, type IV, alpha 5; conditions: probe 1425476_at, 0.02% in diet, 12 weeks
Method: as §1, §2, §3

[10] = test system: matrix metalloproteinase 8; conditions: probe 1449366_at, 0.02% in diet, 12 weeks
Method: as §1, §2, §3

[11] = test system: FK506 binding protein 1a; conditions: probe 1448184_at (Table 4), 0.02% in diet, 12 weeks
Method: as §1, §2, §3

[12] = test system: insulin like growth factor 2 receptor; conditions: probe 1424111_at, 0.02% in diet, 12 weeks
Method: as §1, §2, §3

[13] = test system: collagen, type XXV, alpha 1; conditions: probe 1438655_a_at, 0.02% in diet, 12 weeks
Method: as §1, §2, §3

CC1=C(/C=C/C(C)=C/C=C/C(C)=C/C=C/C=C(C)/C=C/C=C(C)/C=C/C2=C(C)C(=O)C(O)CC2(C)C)C(C)(C)CC(O)C1=O (stereo not drawn) [astaxanthin, 3,3′-dihydroxy-β,β-carotene-4,4′-dione]
gene expression intensity ratio db/db(Ax):db/db [1]: 0.25
gene expression intensity ratio db/db(Ax):db/m [1]: 1.32
gene expression relative ratio db/db(Ax):db/db [2]: 0.23
gene expression relative ratio db/db(Ax):db/m ([2]; probe 1448184_at (Table 5)): 4.00
gene expression intensity ratio db/db(Ax):db/db [3]: 1.32
gene expression intensity ratio db/db(Ax):db/m [3]: 0.71
gene expression relative ratio db/db(Ax):db/db [4]: 2.30
gene expression relative ratio db/db(Ax):db/m [4]: 0.71
gene expression relative ratio db/db(Ax):db/db [5]: 1.00
gene expression relative ratio db/db(Ax):db/m [5]: 27.86
gene expression relative ratio db/db(Ax):db/db [6]: 0.13
gene expression relative ratio db/db(Ax):db/m [6]: 0.66
gene expression intensity ratio db/db(Ax):db/db [7]: 2.00
gene expression intensity ratio db/db(Ax):db/m [7]: 1.23
gene expression relative ratio db/db(Ax):db/db [8]: 0.87
gene expression relative ratio db/db(Ax):db/m [8]: 68.59
gene expression intensity ratio db/db(Ax):db/db [9]: 0.50
gene expression intensity ratio db/db(Ax):db/m [9]: 2.00
gene expression intensity ratio db/db(Ax):db/db [10]: 2.00
gene expression intensity ratio db/db(Ax):db/m [10]: 0.62
gene expression relative ratio db/db(Ax):db/db [11]: 0.66
gene expression relative ratio db/db(Ax):db/m [11]: 6.50
gene expression intensity ratio db/db(Ax):db/db [12]: 0.87
gene expression intensity ratio db/db(Ax):db/m [12]: 11.31
gene expression intensity ratio db/db(Ax):db/db [13]: 0.19
gene expression intensity ratio db/db(Ax):db/m [13]: 0.87

Source: patent US10828269B2, “Reducing muscle atrophy by administering astaxanthin” (FUJI CHEMICAL INDUSTRIES CO., LTD., priority 2004, dated 2020)
